According to patent publication US4737517A, “Coumarin derivatives, pharmaceutical compositions containing the same, and the use thereof in the treatment of cancer” (FIDIA, S.p.A., priority 1983, dated 1988):
Structures can show the parent of a compound that is named as a salt.

Key:
[1] = Acute toxicity in the mouse, oral; design: species or system mouse (Swiss); conditions: in vivo, aqueous solution, up to 14 days, Litchfield and Wilcoxon
Method: Acute toxicity in the mouse: groups of Swiss mice (male+female) are treated with graduated doses ranging from 0.125 g/kg to 5 g/kg of body weight with compounds 19 to 26. The compounds are administered orally by intubation and dissolved in water.
Subsequent death may be immediate or may occur at any time up to 14 days after treatment. The lethal dose 50 (LD50), that is, the dose which causes the death of 50% of the animals, is evaluated by the method of Litchfield and Wilcoxon (J. Pharmacol. Exp. Ther. 96, 99-113, 1949).

coagulation = assay: Thrombotest on capillary blood (anticoagulating effect); assay type: in vivo, mice (C57B1/6J); conditions: oral; 1st adminis. 1.5 mg/kg, 2nd adminis. 0.3 mg/kg; controls 31.4 ± 1.7
Method: In a separate experiment, the anticoagulating activity of the compounds is verified on the same strain of mice at the same doses used for antimetastatic activity evaluation.
The effect on coagulation is measured by a thrombotest on capillary blood taken from the retroorbital cavity (Owren, P. A. et al. Lancet ii, 754-758, 1959).
(§1) The anticoagulating effect measured by the "thrombotest", the antitumor effect measured by the decrease in weight of the primary tumor and the antimetastatic effect shown as the number of metasteses present in the lungs, are reported in Table 2. While the antitumor and antimetastatic effects of Warfarin and the two new products according to the present invention are roughly equal, the strong anticoagulating effect is absent in the two new products of the invention. This is a completely unexpected result.

[2] = Acute toxicity in the rat, oral; design: species or system rat (Sprague Dawley); conditions: in vivo, aqueous solution, up to 14 days, Litchfield and Wilcoxon
Method: Acute toxicity in the rat: groups of Sprague Dawley rats (male+female) are treated with graduated doses ranging from 0.125 g/kg of body weight to 10 g/kg of body weight of the above mentioned compounds in aqueous solution. The compounds are administered orally by intubation. Subsequent death may be immediate or may occur at any time up to 14 days after treatment.
The lethal dose 50 (LD50), that is, the dose which causes the death of 50% of the animals, is evaluated by the method of Litchfield and Wilcoxon (J. Pharmacol. Ex. Ther. 96, 99-113, 1949).

[3] = test system: platelet hyper-aggregation induced by ADP; assay: Inhibition of ADP-induced platelet hyperaggregation in vitro (Born's method, aggregometer ELVI 840); assay type: cell-based, New Zealand rabbits; conditions: Oryctolagus cuniculus, 0.5 h, ADP 20 μg/ml, 100 γ/ml of active compound, rabbit PRP, incubated 30 minutes at 37° C, read-out: Inhibition of platelet hyper-aggregation induced by ADP
Method: Two separate centrifugations are effected (at 1000 rpm and at 6000 rpm), thus obtaining PRP ([…]) and PPP ([…]); the first is diluted with the second in order to obtain a platelet concentration of 300,000 per mm^3 (the count is effected in a Buerker apparatus). The compounds with a platelet antiaggregating activity of the present invention are added at the desired concentrations and incubated for 30 minutes at 37° C. with the aggregating agents. […] The various compounds represented by the numbers in the first column are identifiable by the numbers in the second column which refer to the examples described below in this specification.

[4] = test system: 3 LL carcinoma cells (Lewis lung carcinoma); assay: Antitumor and antimetastatic activity in mice implanted with 3 LL Lewis lung carcinoma; assay type: in vivo, male mice of the C57B1/6J strain; conditions: oral
Method: This activity is to be seen for instance after administration of doses of between 0.2 mg/kg and 10 mg/kg by the oral route, as illustrated by the following experiments.
1×10^5 3 LL carcinoma cells (Lewis lung carcinoma) are implanted by intramuscular injection in the paws of male mice of the C57B1/6J strain, weighing about 20-22 g. This operation is effected as described in the literature (Poggi A. et al. Cancer Res. 37, 272-277, 1977). The growth of the tumor is observed until the 25th day after transplant. On this day the animals are sacrificed and the primary tumor and lungs are removed in order to evaluate the growth of the primary tumor and the number of metastases. Pharmacological treatment by the oral route begins 2 days before transplant of the tumor and continues until sacrifice. The substances are dissolved in tap water and are changed every 24 hours.
Table 2 reports the results obtained with the two coumarin derivatives 19 and 26, previously mentioned in comparison to Warfarin, the well-known […] and antimetastatic compound, which is also a coumarin derivative. Warfarin's antimetastatic activity is widely documented both experimentally (Zacharski, L. R. et al. Cancer 44, 732-741, 1979 and Poggi, A. et al. Lancet i 163-164, 1978) and clinically (Zacharski, L. R. et al. J. Am. Med. Assoc. 245, 831-835, 1981). […] This effect is measured by the number of metastases (Zacharski, L. R. et al. Cancer 44, 732-741, 1979 and Poggi, A. et al. Lancet i 163-164, 1978).
as §1

C=CCc1c(O)c(CN(C)C)cc2c(C)cc(=O)oc12.Cl [Compound 19, 4-methyl-6-dimethylaminomethyl-7-hydroxy-8-allylcumarin hydrochloride]
LD50 at 336 h [1]: 1210 mg/kg
Thrombotest (coagulation): 29.3 ± 1.7
LD50 at 336 h [2]: 2000 mg/kg
inhibition at 100 µg/mL [3]: 40%
antitumoral and antimetastatic activity (in words) ([4]; in vivo on mice): antitumoral and antimetastatic activity
No. of metastases ([4]; lungs, 1st adminis. 1.5 mg/kg, 2nd adminis. 0.3 mg/kg, 25th day after transplant, controls 21.8 ± 4.9): 11.4 ± 3.3
Primary Tumor Weight ([4]; 1st adminis. 1.5 mg/kg, 2nd adminis. 0.3 mg/kg, 25th day after transplant, controls 9087 ± 386): 6731 ± 533 mg

C=CCc1c(O)c(CN2CCOCC2)cc2c(C)cc(=O)oc12 [Compound 25, 4-methyl-6-(4-morpholinylmethyl)-7-hydroxy-8-allylcumarin hydrochlorode]
inhibition at 100 µg/mL [3]: 19%

C=CCc1c(OCC(=O)OCC)c(CN2CCOCC2)cc2c(C)cc(=O)oc12 [Compound 27, Ethyl ester of the acid [4-methyl-6-(4-morpholinylmethyl)-8-allylcumarin-7-yl]oxyacetic]
inhibition at 100 µg/mL [3]: 32%

C=CCOc1c(CN2CCOCC2)cc2c(C)cc(=O)oc2c1CC=C [Compound 28, 4-methyl-6-(4-morpholinylmethyl)-7-allyloxy-8-allylcumarin hydrochloride]
inhibition at 100 µg/mL [3]: 54%

C=CCc1c(OC(C)(C)C(=O)OCC)c(CN2CCOCC2)cc2c(C)cc(=O)oc12 [Compound 29, Ethyl ester of the acid 2-[4-methyl-6-(4-morpholinylmethyl)-8-allylcumarin-7-yl]oxy-2-methylpropionic hydrochloride]
inhibition at 100 µg/mL [3]: 19%

C=CCc1c(O)c(CN2CCOCC2)cc2c(-c3ccccc3)cc(=O)oc12 [Compound 44, 4-phenyl-6-(4-morpholinylmethyl)-7-hydroxy-8-allylcumarin hydrochloride]
inhibition at 100 µg/mL [3]: 20%

C=CCc1c(O)c(CN2CCN(CCO)CC2)cc2c(-c3ccccc3)cc(=O)oc12 [Compound 49, 4-phenyl-6-[[4-(2-hydroxyethyl)-1-piperazinyl]methyl]-7-hydroxy-8-allylcumarin dihydrochloride]
inhibition at 100 µg/mL [3]: 25%

C=CCOc1c(CN2CCOCC2)cc2c(-c3ccccc3)cc(=O)oc2c1CC=C [Compound 50, 4-phenyl-6-(4-morpholinylmethyl)-7-allyloxy-8-allylcumarin hydrochloride]
inhibition at 100 µg/mL [3]: 25%

C=CCc1c(OCC(=O)OCC)c(CN2CCOCC2)cc2c(-c3ccccc3)cc(=O)oc12 [Compound 51, Ethyl ester of [4-phenyl-6-(4-morpholinylmethyl)-8-allylcumarin-7-yl]oxy acetic acid hydrochloride]
inhibition at 100 µg/mL [3]: 37%

C=CCc1c(OC(C)(C)C(=O)OCC)c(CN2CCOCC2)cc2c(-c3ccccc3)cc(=O)oc12 [Compound 52, Ethyl ester of 2-[4-phenyl-6-(4-morpholinylmethyl)-8-allylcumarin-7-yl]oxy-2-methylpropionic acid hydrochloride]
inhibition at 100 µg/mL [3]: 22%

CCN(CC)CCc1c(C)c2cc(CN3CCOCC3)c(O)c(Cl)c2oc1=O [Compound 58, 3-(2-diethylaminoethyl)-4-methyl-6-(4-morpholinylmethyl)-7-hydroxy-8-chlorocumarin dihydrochloride]
inhibition at 100 µg/mL [3]: 25%

CCOC(=O)COc1c(CN2CCOCC2)cc2c(C)c(CCN(CC)CC)c(=O)oc2c1Cl [Compound 62, Ethyl ester of [3-(2-diethylaminoethyl)-4-methyl-6-(4-morpholinylmethyl)-8-chlorocumarin-7-yl]oxyacetic acid dihydrochloride]
inhibition at 100 µg/mL [3]: 23%

C=CCOc1c(CN2CCOCC2)cc2c(C)c(CCN(CC)CC)c(=O)oc2c1Cl [Compound 67, 3-(2-diethylaminoethyl)-4-methyl-6-(4-morpholinylmethyl)-7-allyloxy-8-chlorocumarin hydrochloride]
inhibition at 100 µg/mL [3]: 18%

CCOC(=O)C(C)(C)Oc1c(CN2CCOCC2)cc2c(C)c(CCN(CC)CC)c(=O)oc2c1Cl [Compound 68, Ethyl ester of 2-[3-(2-diethylaminoethyl)-4-methyl-6-(4-morpholinylmethyl)-8-chlorocumarin-7-yl]oxy-2-methylpropionic acid dihydrochloride]
inhibition at 100 µg/mL [3]: 41%

Cc1cc(=O)oc2c(Cl)c(O)c(CN3CCOCC3)cc12 [Compound 69, 4-methyl-6-(4-morpholinylmethyl)-7-hydroxy-8-chlorocumarin hydrochloride]
inhibition at 100 µg/mL [3]: 29%

CCN(CC)Cc1cc2c(C)cc(=O)oc2c(Cl)c1O [Compound 76, 4-methyl-6-diethylaminomethyl-7-hydroxy-8-chlorocumarin hydrochloride]
inhibition at 100 µg/mL [3]: 27%

O=c1cc(-c2ccccc2)c2cc(CN3CCOCC3)c(O)c(Cl)c2o1 [Compound 102, 4-phenyl-6-(4-morpholinylmethyl)-7-hydroxy-8-chlorocumarin hydrochloride]
inhibition at 100 µg/mL [3]: 12%

CCN(CC)CCc1c(C)c2cc(CN3CCOCC3)c(OC)c(Cl)c2oc1=O [Compound 105, 3-(2-diethylaminoethyl)-4-methyl-6-(4-morpholinylmethyl)-7-methoxy-8-chlorocumarin dihydrochloride]
inhibition at 100 µg/mL [3]: 28%

C=CCc1c(O)c(CN2CCCC2)cc2c(C)cc(=O)oc12 [Compound 117, 4-methyl-6-(1-pyrrolidinylmethyl)-7-hydroxy-8-allylcumarin hydrochloride]
inhibition at 100 µg/mL [3]: 44%

C=CCc1c(O)c(CN(CC)CC)cc2c(C)cc(=O)oc12 [Compound 121, 4-methyl-6-diethylaminomethyl-7-hydroxy-8-allylcumarin hydrochloride]
inhibition at 100 µg/mL [3]: 51%

C=CCc1c(O)c(CN2CCCCC2)cc2c(C)cc(=O)oc12 [Compound 124, 4-methyl-6-(1-piperidinylmethyl)-7-hydroxy-8-allylcumarin hydrochloride]
inhibition at 100 µg/mL [3]: 38%

Cc1cc(=O)oc2c(C)c(O)c(CN(C)C)cc12 [Compound 130, 4,8-dimethyl-6-dimethylaminomethyl-7-hydroxycumarin hydrochloride]
inhibition at 100 µg/mL [3]: 29%

Cc1cc(=O)oc2c(Cl)c(O)c(CN(C)C)cc12 [Compound 132, 4-methyl-6-dimethylaminomethyl-7-hydroxy-8-chlorocumarin hydrochloride]
inhibition at 100 µg/mL [3]: 13%

Cc1cc(=O)oc2c(C)c(O)c(CN3CCOCC3)cc12 [Compound 188, 4,8-dimethyl-6-(4-morpholinylmethyl)-7-hydroxycoumarin hydrochloride]
inhibition at 100 µg/mL [3]: 19%

C=CCc1c(O)c(CN2CCC(O)CC2)cc2c(C)cc(=O)oc12 [Compound 200, 4-methyl-6-[(4-hydroxy-1-piperidinyl)methyl]-7-hydroxy-8-allylcumarin hydrochloride]
inhibition at 100 µg/mL [3]: 21%

C=CCc1c(O)c(CN2CCCC(O)C2)cc2c(C)cc(=O)oc12 (centres unmarked) [Compound 201, 4-methyl-6-[(3-hydroxy-1-piperidinyl)methyl]-7-hydroxy-8-allylcumarin hydrochloride]
inhibition at 100 µg/mL [3]: 32%
